# In patent US5902822A, “7-methylthiooxomethyl and 7-methylthiodioxomethyl paclitaxels” (Bristol-Myers Squibb Company, priority 1998, dated 1999):
# Where two headings read alike, the source gives them in different places.
# Legend:
# M109 lung carcinoma = assay: Mice M109 model, advanced distal site antitumor IV testing; format: in vivo, Balb/c×DBA 2 F1 (CDF1) hybrid mice; settings: for Maximum Effect T-C days (delay of median time to grow tumor to 1 gm): intravenous, once daily on days 4-8 post-tumor implant, sc tumor
# Protocol: Mice M109 Model (In-Vivo Activity)
# Balb/c×DBA 2 F1 (CDF1) hybrid mice were implanted subcutaneously (sc) with 0.1 mL of a 2% (w/v) brei of M109 lung carcinoma (as described by William Rose in Evaluation of Madison 109 Lung Carcinoma as a Model for Screening Antitumor Drugs, Cancer Treatment Reports, 65, No. 3-4 (1981)).
# The test compounds and reference drug, paclitaxel, were administered intravenously to groups of mice; each group received a compound at a different dose level, and three or four different dose levels were evaluated per compound. Mice were treated with compounds intravenously, once daily, on days 4, 5, 6, 7, and 8 post-tumor implant. Mice were followed daily for survival until their death or approximately 60-90 days post-tumor implant whichever occurred first. One group of mice per experiment remained untreated and served as the primary control group; a secondary control group was typically included and received 1/10th the tumor inocula of all the other groups of mice (i.e., 0.1 ml of a 0.2% (w/v) brei of M109 lung carcinoma). Tumors were also measured once or, more often, twice weekly to estimate the tumor weight according to the published procedure (ibid).
# Median survival times of compound-treated (T) mice were compared to the median survival time of the control (C) mice. The ratio of the two values for each compound-treated group of mice was multiplied by 100 and expressed as a percentage (i.e. % T/C) in the following Table II for representative compounds. Additionally, the difference between the median time for treated groups and that for the control group to grow tumor to 1 gm, expressed as T-C values in days, is also shown in the following table. The greater the T-C value, the greater the delay in primary tumor growth. […] When the difference in the time to grow 1 gm tumors in both primary and secondary control groups is greater than 4 days, that difference becomes the criterion for activity.
# Advanced Distal Site Antitumor IV Testing of Paclitaxel Derivatives
# [1] = test system: HCT116 human colon carcinoma cells; assay: XTT cytotoxicity assay in HCT116 human colon carcinoma cells; format: cell-based; settings: read-out: Cytotoxicity Assay IC50 against HCT 116 Human colon tumor cell line
# Protocol: Cytotoxicity was assessed in HCT116 human colon carcinoma cells by XTT (2,3-bis(2-methoxy-4-nitro-5-sulfophenyl)-5-[(phenylamino)carbonyl]-2H-tetrazolium hydroxide assay (1). Cells were plated at 4000 cells/well in 96 well microtiter plates and 24 hrs later drugs were added and serial diluted. The cells were incubated at 37° C. for 72 hrs at which time the tetrazolium dye, XTT, containing phenazine methosulfate was added. A dehydrogenase enzyme in live cells reduces the XTT to a form that absorbs light at 450 nm which can be quantitated spectrophotometrically. The greater the absorbance the greater the number of live cells. The results are expressed as an IC50 which is the drug concentration required to inhibit cell proliferation (i.e. absorbance at 450 nm) to 50% of that of untreated control cells.
# The IC50 values for compounds evaluated in this assay are contained in Table I.
# [2] = cited from earlier work
# [3] = HCT-116, XTT, 72 hrs incubation at 37° C.
compound,measurement,setting,value
CC(=O)O[C@H]1C(=O)[C@]2(C)[C@@H](OC[S+](C)[O-])C[C@H]3OC[C@@]3(OC(C)=O)[C@H]2[C@H](OC(=O)c2ccccc2)[C@]2(O)C[C@H](OC(=O)[C@H](O)[C@@H](NC(=O)c3ccccc3)c3ccccc3)C(C)=C1C2(C)C (some centres unmarked),"Maximum Effect % T/C (median survival time, treated vs control)",M109 lung carcinoma; 15 mg/kg,141%
same,"Maximum Effect % T/C (median survival time, treated vs control)",M109 lung carcinoma; 25 mg/kg,129%
same,Maximum Effect T-C days (delay of median time to grow tumor to 1 gm),M109 lung carcinoma; Opt. dose 15 mg/kg/inj,9.0 days
same,Maximum Effect T-C days (delay of median time to grow tumor to 1 gm),M109 lung carcinoma; Opt. dose 25 mg/kg/inj,10.0 days
CC(=O)O[C@H]1C(=O)[C@]2(C)[C@@H](OC[S+](C)[O-])C[C@H]3OC[C@@]3(OC(C)=O)[C@H]2[C@H](OC(=O)c2ccccc2)[C@]2(O)C[C@H](OC(=O)[C@H](O)[C@@H](NC(=O)c3ccccc3)c3ccccc3)C(C)=C1C2(C)C (some centres unmarked) [2 & 3 (Example 1)],IC50,"[1]; HCT-116, 72 h",13 nM
CC(=O)O[C@H]1C(=O)[C@]2(C)[C@@H](OCS(C)(=O)=O)C[C@H]3OC[C@@]3(OC(C)=O)[C@H]2[C@H](OC(=O)c2ccccc2)[C@]2(O)C[C@H](OC(=O)[C@H](O)[C@@H](NC(=O)c3ccccc3)c3ccccc3)C(C)=C1C2(C)C [4 (Example 2)],IC50,[1]; [3],2.8 nM
CC(=O)O[C@H]1C(=O)[C@@]2(C)[C@H]([C@H](OC(=O)c3ccccc3)[C@]3(O)C[C@H](OC(=O)[C@H](O)[C@@H](NC(=O)c4ccccc4)c4ccccc4)C(C)=C1C3(C)C)[C@]1(OC(C)=O)CO[C@@H]1C[C@@H]2O [paclitaxel],"antitumor activity in in vivo animal models, in words",[2],excellent antitumor activity
same,IC50,[1]; [3],4.9 to 5.9 nM
